From patent US10875876B2, “Cyclized sulfamoylarylamide derivatives and the use thereof as medicaments for the treatment of hepatitis B” (priority 2015, dated 2020)
pEC50: −log10 of the molar value.

What was measured:
[1] = Cytotoxicity in HepG2 cells, Resazurin assay; details: human, HepG2 cells, TOX-HepG2-4 d CC50 (μM), HepG2 cells incubated for 4 days, viability by Resazurin assay
HBV = assay: anti HBV activity, HepG2.117 cell line, intracellular HBV DNA by realtime PCR; assay type: cell-based; details: Hepatitis B virus, HepG2.117, 72 h, HepG2.117 cell line (Tet-off), 3 days of treatment, intracellular HBV DNA quantified by realtime PCR; read-out: HBV-AVE-HepG2.117 EC50
In short: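 Readout was intracellular HBV DNA by real-time PCR (HBV-specific primers and probe) after 3 days of compound exposure. Serial dilutions were tested in duplicate on HepG2.117 cells, a stable inducible HBV producer in which replication is switched on when doxycycline is absent.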

| Structure (SMILES) | CC50 at 4 days [1] [µM] | pEC50 (HBV) | melting point [°C] |
| --- | --- | --- | --- |
| Cn1cc2c(c1C(=O)Nc1ccc(F)c(F)c1)CC[C@@H](C(C)(C)O)NS2(=O)=O [Compound 113, (3S)—N-(3,4-difluorophenyl)-3-(1-hydroxy-1-methyl-ethyl)-7-methyl-1,1-dioxo-2,3,4,5-tetrahydropyrrolo[3,4-f]thiazepine-6-carboxamide] | > 25 | 6.92 | 217.7 |
| Cn1cc2c(c1C(=O)Nc1ccc(F)c(F)c1)OC[C@@H](C(C)(C)F)NS2(=O)=O [Compound 121, (3S)—N-(3,4-difluorophenyl)-3-(1-fluoro-1-methyl-ethyl)-7-methyl-1,1-dioxo-3,4-dihydro-2H-pyrrolo[3,4-b][1,4,5]oxathiazepine-6-carboxamide] | > 25 | 7.54 | 239.8 |
| Cn1cc2c(c1C(=O)Nc1ccc(F)c(F)c1)OCC(C)(c1ccccc1)NS2(=O)=O (stereo not drawn) [Compound 125, N-(3,4-difluorophenyl)-3,7-dimethyl-1,1-dioxo-3-phenyl-2,4-dihydropyrrolo[3,4-b][1,4,5]oxathiazepine-6-carboxamide] | > 25 | 8.15 | 256.6 |
| Cn1cc2c(c1C(=O)Nc1ccc(F)c(F)c1)OC[C@@](C)(c1ccccn1)NS2(=O)=O [Compound 126, (3R)—N-(3,4-difluorophenyl)-3,7-dimethyl-1,1-dioxo-3-(2-pyridyl)-2,4-dihydropyrrolo[3,4-b][1,4,5]oxathiazepine-6-carboxamide] | > 25 | 7.21 | 270.5 |
| Cn1cc2c(c1C(=O)Nc1ccc(F)c(F)c1)OC[C@](C)(c1ccccn1)NS2(=O)=O [Compound 127, (3S)—N-(3,4-difluorophenyl)-3,7-dimethyl-1,1-dioxo-3-(2-pyridyl)-2,4-dihydropyrrolo[3,4-b][1,4,5]oxathiazepine-6-carboxamide] | > 25 | 7.89 | 270.8 |
| Cn1cc2c(c1C(=O)Nc1ccc(F)c(C#N)c1)OC[C@](C)(c1ccccn1)NS2(=O)=O [Compound 128, (3S)—N-(3-cyano-4-fluoro-phenyl)-3,7-dimethyl-1,1-dioxo-3-(2-pyridyl)-2,4-dihydropyrrolo[3,4-b][1,4,5]oxathiazepine-6-carboxamide] | > 25 | 7.62 | 235 |
| Cn1cc2c(c1C(=O)Nc1ccnc(Cl)c1)OC[C@H](C(C)(C)O)NS2(=O)=O [Compound 146, (3R)—N-(2-chloro-4-pyridyl)-3-(1-hydroxy-1-methyl-ethyl)-7-methyl-1,1-dioxo-3,4-dihydro-2H-pyrrolo[3,4-b][1,4,5]oxathiazepine-6-carboxamide] | > 25 | 7.26 | 246.6 |
| C[C@H]1CCc2c(cn(C)c2C(=O)Nc2ccc(F)c(C#N)c2F)S(=O)(=O)N1 [Compound 157, (3S)—N-(3-cyano-2,4-difluoro-phenyl)-3,7-dimethyl-1,1-dioxo-2,3,4,5-tetrahydropyrrolo[3,4-f]thiazepine-6-carboxamide] | > 25 | 7.77 | 247.5 |
| Cn1cc2c(c1C(=O)Nc1ccnc(C(F)F)c1)OCC(C)(C)NS2(=O)=O [Compound 158, N-[2-(difluoromethyl)-4-pyridyl]-3,3,7-trimethyl-1,1-dioxo-2,4-dihydropyrrolo[3,4-b][1,4,5]oxathiazepine-6-carboxamide] | > 25 | 7.51 | 229.9 |
| C[C@H]1CCc2c(cn(C)c2C(=O)Nc2ccc(F)c(C(F)F)c2F)S(=O)(=O)N1 [Compound 164, (3S)—N-[3-(difluoromethyl)-2,4-difluoro-phenyl]-3,7-dimethyl-1,1-dioxo-2,3,4,5-tetrahydropyrrolo[3,4-f]thiazepine-6-carboxamide] | > 25 | 7.92 | 227.7 |
